For this experiment, the system named is T1, A. ochraceus proteinase.
T1 construct: native extracellular enzyme from culture liquid; about 35 kDa, non-glycosylated
Put plainly: chromogenic assay, pNA release at […] nm, Lineweaver-Burk and Eadie-Hofstee plots. It is filed as biochemical, Aspergillus ochraceus. Particulars: 0.05 M Tris-HCl pH 8.2, 37 °C; substrate 0.25-2.0 mg/mL.

Non-standard residues stand in square brackets, D forms with d. Residues, ends and D or L forms follow the SMILES beside them. *: point of attachment. pNA = O=[N+]([O-])c1ccc(N*)cc1

As to `CC(C)C[C@@H](N)C(=O)N[C@@H](CCCCN)C(=O)Nc1ccc([N+](=O)[O-])cc1` [H-D-Leu-Lys-pNA] (H-[dL]-Lys-pNA), the Km was 3.48 mM.

The values above are taken from article PMC10531319, “Hemostatically Active Proteinase Produced by Aspergillus ochraceus: Key Specific Properties and Effect on Target Proteins” (International Journal of Molecular Sciences, 2023).
